Values quoted from earlier work in patent US20250369985A1, “METHOD FOR DETERMINING THE THERAPEUTIC REGIMEN FOR AN INDIVIDUAL AND ITS USE” (MOSAIQUES DIAGNOSTICS AND THERAPEUTICS AG, priority 2022, published 2025).
Like-named read-outs stand apart in the source and are kept apart here.

Tested on: urinary proteins/peptides (71 biomarkers of CD71 classifier)

Cc1ccc([C@@H]2O[C@H](CO)[C@@H](O)[C@H](O)[C@H]2O)cc1Cc1ccc(-c2ccc(F)cc2)s1 [drug C]
f (fold-change of the abundance) (peptide 99900220 (Seq. ID No. 1)): 1 | f (fold-change of the abundance) (peptide 99900467 (Seq. ID No. 2)): 1 | f (fold-change of the abundance) (peptide 99901399 (Seq. ID No. 3)): 1 | f (fold-change of the abundance) (peptide 99902592 (Seq. ID No. 4)): 1 | f (fold-change of the abundance) (peptide 99903025 (Seq. ID No. 5)): 1 | f (fold-change of the abundance) (peptide 99904405 (Seq. ID No. 6)): 1.22 | f (fold-change of the abundance) (peptide 99904666 (Seq. ID No. 7)): 1 | f (fold-change of the abundance) (peptide 99904862 (Seq. ID No. 8)): 1 | f (fold-change of the abundance) (peptide 99905044 (Seq. ID No. 9)): 1 | f (fold-change of the abundance) (peptide 99905259 (Seq. ID No. 10)): 1 | f (fold-change of the abundance) (peptide 99905274 (Seq. ID No. 11)): 1.86 | f (fold-change of the abundance) (peptide 99905379 (Seq. ID No. 12)): 1 | f (fold-change of the abundance) (peptide 99905423 (Seq. ID No. 13)): 1 | f (fold-change of the abundance) (peptide 99905509 (Seq. ID No. 14)): 1 | f (fold-change of the abundance) (peptide 99905551 (Seq. ID No. 15)): 1 | f (fold-change of the abundance) (peptide 99906176 (Seq. ID No. 16)): 1 | f (fold-change of the abundance) (peptide 99907275 (Seq. ID No. 17)): 1 | f (fold-change of the abundance) (peptide 99907807 (Seq. ID No. 18)): 1.84 | f (fold-change of the abundance) (peptide 99908755 (Seq. ID No. 19)): 1 | f (fold-change of the abundance) (peptide 99908795 (Seq. ID No. 20)): 1 | f (fold-change of the abundance) (peptide 99908916 (Seq. ID No. 21)): 1 | f (fold-change of the abundance) (peptide 99909059 (Seq. ID No. 22)): 1 | f (fold-change of the abundance) (peptide 99910002 (Seq. ID No. 23)): 1 | f (fold-change of the abundance) (peptide 99910032 (Seq. ID No. 24)): 1 | f (fold-change of the abundance) (peptide 99910407 (Seq. ID No. 25)): 1 | f (fold-change of the abundance) (peptide 99910483 (Seq. ID No. 26)): 1 | f (fold-change of the abundance) (peptide 99910554 (Seq. ID No. 27)): 1 | f (fold-change of the abundance) (peptide 99910883 (Seq. ID No. 28)): 1.71 | f (fold-change of the abundance) (peptide 99911002 (Seq. ID No. 29)): 1 | f (fold-change of the abundance) (peptide 99911193 (Seq. ID No. 30)): 1 | f (fold-change of the abundance) (peptide 99911415 (Seq. ID No. 31)): 1 | f (fold-change of the abundance) (peptide 99911559 (Seq. ID No. 32)): 1.33 | f (fold-change of the abundance) (peptide 99911777 (Seq. ID No. 33)): 1 | f (fold-change of the abundance) (peptide 99912101 (Seq. ID No. 34)): 1 | f (fold-change of the abundance) (peptide 99912211 (Seq. ID No. 35)): 1 | f (fold-change of the abundance) (peptide 99912366 (Seq. ID No. 36)): 1 | f (fold-change of the abundance) (peptide 99912411 (Seq. ID No. 37)): 1 | f (fold-change of the abundance) (peptide 99912661 (Seq. ID No. 38)): 1 | f (fold-change of the abundance) (peptide 99913200 (Seq. ID No. 39)): 1 | f (fold-change of the abundance) (peptide 99913322 (Seq. ID No. 40)): 1.86 | f (fold-change of the abundance) (peptide 99913825 (Seq. ID No. 41)): 1 | f (fold-change of the abundance) (peptide 99914211 (Seq. ID No. 42)): 1 | f (fold-change of the abundance) (peptide 99914445 (Seq. ID No. 43)): 0.64 | f (fold-change of the abundance) (peptide 99914876 (Seq. ID No. 44)): 1 | f (fold-change of the abundance) (peptide 99914887 (Seq. ID No. 45)): 1 | f (fold-change of the abundance) (peptide 99914893 (Seq. ID No. 46)): 1 | f (fold-change of the abundance) (peptide 99914935 (Seq. ID No. 47)): 1.55 | f (fold-change of the abundance) (peptide 99915015 (Seq. ID No. 48)): 1 | f (fold-change of the abundance) (peptide 99915755 (Seq. ID No. 49)): 1 | f (fold-change of the abundance) (peptide 99915778 (Seq. ID No. 50)): 1 | f (fold-change of the abundance) (peptide 99915883 (Seq. ID No. 51)): 1 | f (fold-change of the abundance) (peptide 99916170 (Seq. ID No. 52)): 1 | f (fold-change of the abundance) (peptide 99916177 (Seq. ID No. 53)): 1 | f (fold-change of the abundance) (peptide 99916611 (Seq. ID No. 54)): 0.79 | f (fold-change of the abundance) (peptide 99916615 (Seq. ID No. 55)): 0.83 | f (fold-change of the abundance) (peptide 99916966 (Seq. ID No. 56)): 1 | f (fold-change of the abundance) (peptide 99917047 (Seq. ID No. 57)): 1 | f (fold-change of the abundance) (peptide 99917221 (Seq. ID No. 58)): 1 | f (fold-change of the abundance) (peptide 99917280 (Seq. ID No. 59)): 1 | f (fold-change of the abundance) (peptide 99917288 (Seq. ID No. 60)): 1 | f (fold-change of the abundance) (peptide 99917419 (Seq. ID No. 61)): 1 | f (fold-change of the abundance) (peptide 99917505 (Seq. ID No. 62)): 1 | f (fold-change of the abundance) (peptide 99917596 (Seq. ID No. 63)): 1 | f (fold-change of the abundance) (peptide 99917626 (Seq. ID No. 64)): 1 | f (fold-change of the abundance) (peptide 99917690 (Seq. ID No. 65)): 0.63 | f (fold-change of the abundance) (peptide 99917825 (Seq. ID No. 66)): 2.01 | f (fold-change of the abundance) (peptide 99917890 (Seq. ID No. 67)): 1 | f (fold-change of the abundance) (peptide 99917947 (Seq. ID No. 68)): 1 | f (fold-change of the abundance) (peptide 99918831 (Seq. ID No. 69)): 1 | f (fold-change of the abundance) (peptide 99918906 (Seq. ID No. 70)): 1 | f (fold-change of the abundance) (peptide 99918909 (Seq. ID No. 71)): 1
